What all share (type): in vivo, mouse
The test system of assay [1] is wild type and estrogen receptor beta knockout (βERKO) mice. Description: Uterine weights after 3 days of treatment. The note with it: treated 3 days, E2 0.2 mg/kg, A 5 or 10 mg/kg, uteri collected 24 hrs after last treatment. As to the method: Animals (n=5/group) were treated for 3 days and brain and uteri were collected 24 hrs after last treatment.
The subject of assay [2] is Progesterone receptor (PR) protein in the dorsal raphe nucleus. The assay is described as follows: Murine brain progestin receptor (PR) ICC assay, dorsal raphe nucleus. The settings on record: for PR induction in the dorsal raphe nucleus: βERKO mouse lacking functional ERβ, treated 3 days, E2 0.2 mg/kg, A 5 or 10 mg/kg, immunohistochemistry 24 h after last treatment.
Method: (§1) Animals (n=5/group) were treated for 3 days and brains and uteri were collected 24 hours after the last treatment and processed for immunohistochemistry.
(§2) Female mice (12-16 wks of age) are ovariectomized by the vendor (C57BL/6s from Charles River) and shipped one week later. Animals are fed a soy-free rodent chow upon arrival at the Merck animal facility, where they are given an additional week to adjust to the new environment. […] Approximately 24 hours after the last dose, animals are deeply anesthetized with ketamine/xylazine and are transcardially perfused with 50 ml of 3.5% acrolein and 2% paraformaldehyde in 0.1 M sodium phosphate buffer (PB), pH 7.4. Brains are immediately removed and placed into ice cold 0.1 M PB and stored at 4 C overnight. Brains are sectioned at 40 μm on a vibrating microtome in 0.1M PB, transferred into cryoprotectant (30% sucrose; 30% ethylene glycol in 0.1 M PB, pH 7.4) and stored at −20° C. until processing for immunocytochemistry.
Free floating 40 μm sections are washed in cold 0.1 M phosphate buffered saline (PBS), pH 7.4, to thoroughly remove cryoprotectant. To insure consistent immunolabeling across animals, a screen-bottom 24-well tissue holder and fitted solid lucite tray containing buffer is used to conduct the experiment. Thus, all sections are co-incubated in the same solutions/conditions during the entire experiment. To deter non-specific staining in acrolein-fixed tissue, sections are washed in 1% sodium borohydride (NaBH4) in PBS for 30 minutes and rinsed 8 to 10 times with PBS. Endogenous peroxidase activity is inhibited by washing tissue in 0.3% hydrogen peroxide and 10% methanol in PBS for 15 minutes. Sections are washed in PBS and blocked in either 1) 2% normal goat serum in PBS with 0.05% Triton X-100 (PBST) for one hour, or 2) a mouse-on-mouse Ig blocking reagent (Vector) for 1 hour followed by a mouse protein concentrate (Vector) for 30 min. Sections are incubated with PR antibody in blocking buffer diluted to 1% normal serum over one night at RT and one night at 4 C, or three nights at 4 C. […]
In assay [3] the test system is PR immunoreactive cells in the hippocampus. The assay is described as follows: Murine brain PR ICC assay, hippocampus (PR regulated exclusively by ERα). The settings on record: 3 days.
Method: as §1, §2
Free floating 40 μm sections are washed in cold 0.1 M phosphate buffered saline (PBS), pH 7.4, to thoroughly remove cryoprotectant. To insure consistent immunolabeling across animals, a screen-bottom 24-well tissue holder and fitted solid lucite tray containing buffer is used to conduct the experiment. Thus, all sections are co-incubated in the same solutions/conditions during the entire experiment. […]

For the compound `C[C@]12CC[C@H]3[C@@H](CC=C4C[C@@H](O)CC[C@@]43C)[C@@H]1CC[C@@H]2O` [A, delta-5-androstene-3-beta-17-beta-diol], in assay [1], the uterine weight entry was “only a modest effect”. Also, the “ER-beta activity in brain” value in assay [2] (at the doses tested (A 5 or 10 mg/kg), 3 days) is “full ER-beta activity in brain”. In addition, the “PR induction in the dorsal raphe nucleus” value in assay [2] is “complete loss of PR induction”. Besides, the “PR immunoreactive cells in the hippocampus” value in assay [3] (5 mg/kg) is “no PR immunoreactivity”; in assay [3] (high dose 10 mg/kg) it was “just an occasional, lightly-stained cell”.

With `C[C@]12CC[C@@H]3c4ccc(O)cc4CC[C@H]3[C@@H]1CC[C@@H]2O` [E2, 17β-estradiol, reference compound], the uterine weight entry in assay [1] is “robustly increased uterine weight”. In addition, in assay [2], the “PR induction in the dorsal raphe nucleus” value was “attenuation of PR induction”.

For the origin of these results see US20080032959A1, “Estrogen Receptor Modulators” (priority 2004, published 2008).
